From patent US20110112100A1, “Hepatitis C Virus Inhibitors” (priority 2009, published 2011) come the findings set out here.

Where a name gives a salt, the structure may show the parent alone. Read-outs that look alike come from different tables or passages of the source.

One series has as its system 1b (con1) replicon cells. Nature of the series: HCV 1b replicon inhibitory activity (luciferase, Britelite Plus). Format: cell-based, hepatitis C virus. The conditions noted are these: Hepatitis C virus, read-out: IC50 value (95% Confidence Intervals) pM Replicon 1B assay. The procedure, abridged: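 1b (con1) luciferase replicon cells in DMEM + 10% FCS were exposed to 1-in-3 DMSO compound dilutions for 48 h at 37° C, 5% CO2. Luminescence was read 1-15 min after Britelite Plus addition; EC50 came from log concentration-response curves.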

Series [1] is described as follows: Plasma protein binding, Rapid Equilibrium Dialysis. The class given is in vitro ADME. The conditions noted are these: human plasma proteins. Here is the method:
Plasma binding free fractions (fu) were determined using a proprietary validated Rapid Equilibrium Dialysis (RED) device (Thermofisher). The analyte was spiked to a concentration of 2 μM in pre-prepared male CD rat plasma and 220 μl aliquots (n=4) were loaded into a RED device. The samples were dialysed vs. 350 μl of dulbeccos phosphate buffered saline (dPBS) for 4 h at 37° C. in a CO2 incubator in order to reach equilibrium. After 4 hours, 45 μl buffer and 15 μl plasma aliquots were taken and added to a 200 μl 384-well polypropylene plate. Respective volumes of control buffer were added to the plasma or control plasma was added to the buffer samples to give an identical matrix between samples. The samples were then crashed in 120 μl of acetonitrile and analysed via LC-MS/MS.
For highly bound compounds in the potency assay, which includes 10% foetal calf serum, measured potencies may not reflect real intrinsic potency due to a significant degree of compound binding.
A general note: Equilibrium dialysis compares concentrations on both sides of a semipermeable membrane.

The test system of a further series is 1a-H77 replicon cells. Nature of the series: HCV 1a replicon inhibitory activity (Renilla luciferase). The class given is cell-based, hepatitis C virus. As to conditions: Hepatitis C virus, read-out: IC50 value (95% Confidence Intervals) pM Replicon 1A assay. The procedure, abridged:
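Replicon cells in DMEM + 10% FCS incubated 48 hours at 37° C., 5% CO2 with 1-in-3 serial dilutions of compound prepared in DMSO. Replication read as Renilla luciferase luminescence after lysis. EC50 taken from log concentration-response curves.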
A general note: A replicon is a self-replicating genome or part of one, used to study replication in cells.

A short description of series [2]: Compound induced cytotoxicity in HCV replicon cell lines (WST-1 reagent). Format: cell-based. As to conditions: human, 1b (con1) HCV replicon cells; WST-1, 48 hours; in 1 experiment. As for the experimental part:
Test compounds were solubilised to 4 mM in 100% DMSO. Dilutions were made to the desired starting concentration in 100% DMSO and then 1 in 3 dilutions made, again in 100% DMSO. 0.5 μl of each sample was added to 384-well assay plates. White Lumitrac (Greiner) plates were used for the 1a and 1b replicon assays and black, clear bottomed (Greiner) plates were used for the WST-1 cytotoxity assay.
1b (con1) replicon cells were resuspended to a concentration of 1.4×10^5 cells/ml by addition of pre-warmed medium (DMEM+10% FCS). 50 μl of this suspension was added to each well of a 384-well assay plate (Black, clear bottomed, Greiner) already containing 0.5 μl of test compound.
All plates were covered with gas permeable seals and incubated at 37° C., 5% CO2 for 48 hours. After 48 hours, 5 μl WST-1 reagent (Roche, 11 644 807 001) was added to each well and the plate returned to the incubator for 3 hours. After this incubation period absorbance was read at 450 nm on an EnVision (Perkin Elmer) plate reader. The half maximal cytotoxic concentration (CC50) values were calculated for each compound by constructing log concentration-response curves.
All of the exemplified compounds have been screened in a cell proliferation assay (WST-1). A majority have […] in at least 2 independent experiments, the exceptions being the compounds of examples 1, 10, 12, 23, 25, 37, 47, 48, 49, 52, 56, 57, 58, 60, 67, 68, 69, 70, 71, 72, 73, 74, 79, 81 and 84 which have CC50 values>2 μM in 1 experiment, and example 20 where the CC50 is reported as >10 nM (in this instance the top concentration tested in the assay was 10 nM).

Setting [3] is: geometric mean, 95% confidence intervals in parentheses, 48 hours, medium with 10% FCS.

A word on the IC50: it is the concentration that inhibits the measured activity by half. The fraction unbound is free concentration divided by total concentration. Read a low fraction unbound as extensive binding. Turning to `COC(=O)N[C@H](C(=O)N1CCC[C@H]1c1ncc(-c2ccc(-c3ccc4cc(-c5cnc([C@@H]6CCCN6C(=O)[C@@H](NC(=O)OC)C(C)C)[nH]5)ccc4c3)cc2)[nH]1)C(C)C` [Example 2, Methyl {(2S)-1-[(2S)-2-{5-[6-(4-{2-[(2S)-1-{(2S)-2-[(methoxycarbonyl)amino]-3-methyl-butanoyl}pyrrolidin-2-yl]-1H-imidazol-4-yl}phenyl)naphthalen-2-yl]-1H-imidazol-2-yl}pyrrolidin-1-yl]-3-methyl-1-oxobutan-2-yl}carbamate], the IC50 in the series with 1b (con1) replicon cells (setting [3]) was determined as 2.37 pM; in the series on 1a-H77 replicon cells (setting [3]), 22.3 pM. Further, the fraction unbound at 4 h, 2 µM in series [1] stood at 0.001.
In the case of `COC(=O)N[C@H](C(=O)N1CCC[C@H]1c1nc(-c2ccc3nc(-c4ccc(-c5cnc([C@@H]6CCCN6C(=O)[C@@H](NC(=O)OC)C(C)C)[nH]5)cc4)ccc3c2)c[nH]1)C(C)C` [Example 3, [(S)-1-((S)-2-{4-[2-(4-{2-[(S)-1-((S)-2-Methoxycarbonylamino-3-methyl-butyryl)-pyrrolidin-2-yl]-3H-imidazol-4-yl}-phenyl)-quinolin-6-yl]-1H-imidazol-2-yl}-pyrrolidine-1-carbonyl)-2-methyl-propyl]-carbamic acid methyl ester], the IC50 stood at 9.31 pM in the series on 1b (con1) replicon cells (setting [3]) and 74.6 pM in the series on 1a-H77 replicon cells (setting [3]). Further, the fraction unbound at 4 h, 2 µM in series [1] was under 0.0015.
The term CC50 denotes the concentration that lowers cell viability or growth by half. As to `COC(=O)N[C@@H](CCS(C)(=O)=O)C(=O)N1CCC[C@H]1c1ncc(-c2ccc3nc(-c4ccc(-c5c[nH]c([C@@H]6CCCN6C(=O)[C@@H](NC(=O)OC)C(C)C)n5)cc4)cnc3c2)[nH]1` [Example 67, methyl [(2S)-1-[(2S)-2-{5-[2-(4-{2-[(2S)-1-{(2S)-2-[(methoxycarbonyl)amino]-3-methylbutanoyl}pyrrolidin-2-yl]-1H-imidazol-4-yl}phenyl)quinoxalin-6-yl]-1H-imidazol-2-yl}pyrrolidin-1-yl]-4-(methylsulfonyl)-1-oxobutan-2-yl]carbamate trifluoroacetic acid salt], the values for the IC50 with 1b (con1) replicon cells (48 h) and in the series on 1a-H77 replicon cells (48 h) were 74.8 pM and 27.5 pM, respectively. In series [2], this compound displayed a CC50 at 48 h of over 2000 nM.
The corresponding values for `COC(=O)N[C@H](C(=O)N1CCC[C@H]1c1nc(-c2ccc(-c3cnc4cc(-c5cnc([C@@H]6CCCN6C(=O)[C@@H](CCc6ccccc6)NC(=O)OC)[nH]5)ccc4n3)cc2)c[nH]1)C(C)C` [Example 72, Methyl {(2R)-1-[(2S)-2-{5-[2-(4-{2-[(2S)-1-{(2S)-2-[(methoxycarbonyl)amino]-3-methylbutanoyl}pyrrolidin-2-yl]-1H-imidazol-4-yl}phenyl)quinoxalin-6-yl]-1H-imidazol-2-yl}pyrrolidin-1-yl]-1-oxo-4-phenylbutan-2-yl}carbamate trifluoroacetic acid salt] are 7.81 pM, 53.6 pM and over 2000 nM.
Turning to `COC(=O)N[C@H](C(=O)N1CCC[C@H]1c1ncc(-c2ccc(-c3ncc4cc(-c5cnc([C@@H]6CCCN6C(=O)[C@@H](NC(=O)OC)C(C)C)[nH]5)ccc4n3)cc2)[nH]1)C(C)C` [Example 1], the IC50 worked out at 5.89 pM in the series with 1b (con1) replicon cells (setting [3]) and 36 pM with 1a-H77 replicon cells (setting [3]). Moreover, in series [1], the fraction unbound at 4 h, 2 µM is 0.0015. Also, in series [2], the CC50 at 48 h is over 2000 nM.
In the case of `COC(=O)N[C@@H](CCc1ccccc1)C(=O)N1CCC[C@H]1c1ncc(-c2ccc3nc(-c4ccc(-c5c[nH]c([C@@H]6CCCN6C(=O)[C@@H](NC(=O)OC)C(C)C)n5)cc4)cnc3c2)[nH]1` [Example 79, Methyl {(2S)-1-[(2S)-2-{5-[2-(4-{2-[(2S)-1-{(2S)-2-[(methoxycarbonyl)amino]-3-methylbutanoyl}pyrrolidin-2-yl]-1H-imidazol-4-yl}phenyl)quinoxalin-6-yl]-1H-imidazol-2-yl]pyrrolidin-1-yl]-1-oxo-4-phenylbutan-2-yl}carbamate trifluoroacetic acid salt], the IC50 in the series with 1b (con1) replicon cells (48 h) stood at 11.7 pM; with 1a-H77 replicon cells (48 h) it was 47.6 pM. Besides, in series [2], the CC50 at 48 h was over 2000 nM.
The corresponding values for `COC(=O)N[C@H](C(=O)N1CCC[C@H]1c1nc(-c2ccc(-c3cnc4cc(-c5cnc([C@@H]6CCCN6C(=O)[C@H](NC(=O)OC)c6ccccc6)[nH]5)ccc4n3)cc2)c[nH]1)C(C)C` [Example 84, Methyl {(2S)-1-[(2S)-2-{4-[4-(6-{2-[(2S)-1-{(2R)-2-[(methoxycarbonyl)amino]-2-phenylacetyl}pyrrolidin-2-yl]-1H-imidazol-5-yl}quinoxalin-2-yl)phenyl]-1H-imidazol-2-yl}pyrrolidin-1-yl]-3-methyl-1-oxobutan-2-yl}carbamate trifluoroacetic acid salt] are 10.9 pM, 19 pM and over 2000 nM.
